Experiment [1] has as its target T1, Rba. sphaeroides WT RC–LH1 monomer (Cereibacter sphaeroides, UniProt P0C0Y8+P0C0Y9).
T1 construct: gene pufL; native RC–LH1 monomer with open LH1 ring (contains PufX); with Reaction center protein H chain; Light-harvesting protein B-875 alpha chain (LH1 alpha); Light-harvesting protein B-875 beta chain (LH1 beta); Intrinsic membrane protein PufX
Kind of experiment: cytochrome c2 oxidation at […] nm under […] nm light. The class given is biochemical. The note with it: QB site of RC (L/M); 0-40 μM UQ2, 15 nM RC–LH1, 30 μM reduced horse-heart cytochrome c, HEPES pH 8.0, 0.01% β-DDM; apparent Km not determined.

Experiment [2] has as its target T2, Rsp. rubrum RC–LH1 supercomplex (RC–LH1 monomer) (Rhodospirillum rubrum, UniProt P02947+P10717+Q2RQ23+Q2RQ26).
T2 construct: gene pufL; native purification from phototrophic cells (beta-DDM, sucrose gradient); closed ring of 16 alpha-beta pairs around RC L, M, H; modelled alpha 45 and beta 44 residues
Kind of experiment: cytochrome c2 oxidation at […] nm under […] nm light. The class given is biochemical. The following applies: QB site of RC (L/M); 0-40 μM UQ2, 15 nM RC–LH1, 30 μM reduced horse-heart cytochrome c, HEPES pH 8.0, 0.01% β-DDM; apparent Km not determined.

The target of experiment [3] is T2, Rsp. rubrum RC–LH1 supercomplex (RC–LH1 monomer). The experiment in a line: cryo-EM structure, […] Å. The following applies: native carotenoid of LH1, one per alpha-beta heterodimer (16). The class given is binding.

T2 sequence (P10717 2-276): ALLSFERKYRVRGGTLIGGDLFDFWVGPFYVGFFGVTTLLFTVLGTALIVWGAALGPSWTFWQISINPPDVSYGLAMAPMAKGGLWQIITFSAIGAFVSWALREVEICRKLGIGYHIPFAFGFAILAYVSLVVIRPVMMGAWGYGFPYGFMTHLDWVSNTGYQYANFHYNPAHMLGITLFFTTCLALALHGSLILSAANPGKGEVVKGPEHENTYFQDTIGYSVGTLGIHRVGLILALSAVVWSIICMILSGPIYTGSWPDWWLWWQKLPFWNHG
T2 sequence (Q2RQ26 1-306): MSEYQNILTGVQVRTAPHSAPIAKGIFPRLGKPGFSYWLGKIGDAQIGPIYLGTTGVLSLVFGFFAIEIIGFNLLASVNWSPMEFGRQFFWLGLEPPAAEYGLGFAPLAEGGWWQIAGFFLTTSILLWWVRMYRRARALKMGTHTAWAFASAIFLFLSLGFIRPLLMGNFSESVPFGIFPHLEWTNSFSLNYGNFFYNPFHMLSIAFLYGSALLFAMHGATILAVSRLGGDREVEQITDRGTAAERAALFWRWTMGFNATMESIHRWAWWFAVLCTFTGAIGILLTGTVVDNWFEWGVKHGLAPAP
T2 sequence (Q2RWS4 1-257 partner): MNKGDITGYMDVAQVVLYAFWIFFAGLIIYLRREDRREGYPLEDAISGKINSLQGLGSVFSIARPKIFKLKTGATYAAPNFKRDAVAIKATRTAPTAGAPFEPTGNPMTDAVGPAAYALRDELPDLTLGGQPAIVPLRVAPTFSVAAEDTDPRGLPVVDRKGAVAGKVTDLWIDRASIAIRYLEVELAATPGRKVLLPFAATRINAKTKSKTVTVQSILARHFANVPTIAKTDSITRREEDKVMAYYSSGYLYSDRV
T2 sequence (P02947 1-52): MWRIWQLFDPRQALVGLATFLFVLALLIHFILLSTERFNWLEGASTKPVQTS
T2 sequence (Q2RQ23 3-56): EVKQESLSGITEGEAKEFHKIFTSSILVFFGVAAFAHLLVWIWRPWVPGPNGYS

Turning to `COC1=C(OC)C(=O)C(C/C=C(\C)CCC=C(C)C)=C(C)C1=O` [ubiquinone‐2], the “cytochrome c2 oxidation at 550 nm under 880 nm light” value in experiment [1] is on record as “open RC–LH1 monomer of Rba. sphaeroides WT”. The “cytochrome c oxidation at 550 nm under 880 nm light” value in experiment [2] is recorded as “maximum quinone/quinol exchange rate for Rsp. rubrum RC–LH1 monomer”.
`COC(C)(C)C/C=C/C(C)=C/C=C/C(C)=C/C=C/C(C)=C/C=C/C=C(C)/C=C/C=C(C)/C=C/C=C(C)/C=C/CC(C)(C)OC` [spirilloxanthin]: in experiment [3], the “cryo-EM structure, 3.0 Å” value was “The LH1 α‐polypeptide is light blue sky, the β‐polypeptide is pink, spirilloxanthin is green”.

The values above are taken from PMC12086609, “Characterization of the Structure and Function of the Photosynthetic RC–LH1 Core Supercomplex From Rhodospirillum rubrum” (Physiologia Plantarum, 2025).
